Data: patent US20160058782A1, “MAILLARD REACTION INHIBITOR” (MORISHITA JINTAN CO., LTD., priority 2011, published 2016)
≈ marks a conversion by molar mass, not a printed value.

Test system: Maillard reaction (Human Serum Albumin and Glucose)
Assay: Measurement of the Maillard reaction inhibitory activity (fluorescent products of human serum albumin and glucose, 60° C., 40 hours)
Details: for IC50 values compared with tannic acid, ellagic acid dihydrate and aminoguanidine / Maillard reaction inhibitory activity compared with aminoguanidine (positive control) / Maillard reaction inhibition ratio (%) compared with ellagic acid dihydrate and aminoguanidine: in words; for Maillard reaction inhibitory activity compared with aminoguanidine (positive control): Tables 2 and 3; for Maillard reaction inhibition ratio (%) compared with ellagic acid dihydrate and aminoguanidine: when prepared at lower concentrations; for IC50: human, 40 h
Protocol: A pomegranate extract (containing 50% by mass of polyphenol; manufactured by Morishita Jintan Co., Ltd.), punicalin, punicalagin, oenothein B, eucarbanin B, punicacortein C, a compound represented by the formula (VI), and a compound represented by the formula (VII) were used as samples to be examined. Tannic acid and ellagic acid dihydrate were used for comparison. Aminoguanidine was used as a positive control. […], 300 μg/mL and 1,000 μg/mL, and the Maillard reaction inhibitory activity of the prepared solutions was measured. The inhibitory activity was measured as follows.
Four reaction solutions A to D shown in Table 1 below were prepared using the above-described prepared solutions of the samples, and were incubated at 60° C. for 40 hours to cause the Maillard reaction. Thereafter, 400 μL of the reaction solutions A to D was diluted with 2,400 μL of distilled water and diluted samples were obtained. The fluorescence intensity (the excitation light: 370 nm; the measurement light: 440 nm) of the diluted samples was measured and was expressed as a relative value with respect to the fluorescence intensity of 0.1 μg/mL solution of quinine sulfate that was taken as 100 to calculate the amount of fluorescent products of the Maillard reaction (quantitative value).
Next, the Maillard reaction inhibition ratio (%) with respect to the above-described prepared solutions (concentration (μg/mL)) of the samples was calculated from the obtained quantitative value using the following equation.
Equation: Inhibition ratio (%)=100−[(a−b)/(c−d)]×100 [Formula 1]
where a represents a relative value (−) of the fluorescent products of the Maillard reaction with the reaction solution A calculated in terms of quinine sulfate,
b represents a relative value (−) of the fluorescent products of the Maillard reaction in terms of quinine sulfate when the reaction solution B is used,
c represents a relative value (−) of the fluorescent products of the Maillard reaction in terms of quinine sulfate when the reaction solution C is used, and
d represents a relative value (−) of the fluorescent products of the Maillard reaction in terms of quinine sulfate when the reaction solution D is used.
Thereafter, 50% inhibition ratio (IC50) of each sample was calculated as follows. That is, the inhibition ratio was plotted with respect to the sample concentration, 4-parameter plot was performed, and the concentration showing an inhibition ratio of 50% was taken as IC50.

In the case of O=C(OC1C(O)OC2COC(=O)c3cc(Oc4c(C(=O)OC5C(O)OC6COC(=O)c7cc(Oc8c(C(=O)OC9C(O)OC%10COC(=O)c%11cc(Oc%12c(C(=O)OC%13C(O)OC%14COC(=O)c%15cc(O)c(O)c(O)c%15-c%15c(cc(O)c(O)c%15O)C(=O)O[C@H]%14C%13OC(=O)c%13cc(O)c(O)c(O)c%13)cc(O)c(O)c%12O)c(O)c(O)c%11-c%11c(cc(O)c(O)c%11O)C(=O)O[C@H]%10C9OC(=O)c9cc(O)c(O)c(O)c9)cc(O)c(O)c8O)c(O)c(O)c7-c7c(cc(O)c(O)c7O)C(=O)O[C@H]6C5OC(=O)c5cc(O)c(O)c(O)c5)cc(O)c(O)c4O)c(O)c(O)c3-c3c(cc(O)c(O)c3O)C(=O)O[C@H]2C1OC(=O)c1cc(O)c(O)c(O)c1)c1cc(O)c(O)c(O)c1 (stereo partly shown), the “Maillard reaction inhibition ratio (%)” value (Conc. 0.01 mg/mL) is reported as 30.4%, the “Maillard reaction inhibition ratio (%)” value (Conc. 0.1 mg/mL) is reported as 40.3% and the “Maillard reaction inhibition ratio (%)” value (Conc. 1 mg/mL) is reported as 74.3%. For the same compound, the “Maillard reaction inhibition ratio (%)” value (Conc. 10 mg/mL) was 82.5%, the “IC50 values compared with tannic acid, ellagic acid dihydrate and aminoguanidine” value (shortened to “IC50 values compared with tannic acid”) was “particularly low” and the “Maillard reaction inhibitory activity compared with aminoguanidine (positive control)” value was “superior Maillard reaction inhibitory activity to aminoguanidine”. For the same compound, the “Maillard reaction inhibition ratio (%) compared with ellagic acid dihydrate and aminoguanidine” value was “particularly superior”.
In the case of N=C(N)NN [Aminoguanidine, reference compound], the “Maillard reaction inhibition ratio (%)” value (Conc. 100 mg/mL) is reported as 40.2%, the “Maillard reaction inhibition ratio (%)” value (Conc. 300 mg/mL) is reported as 51.4% and the “Maillard reaction inhibition ratio (%)” value (Conc. 1000 mg/mL) is reported as 62%. For the same compound, the IC50 was 273 µg/mL (≈ 3690 µM).
O=C(OC1C(O)OC2COC(=O)c3cc(Oc4c(C(=O)OC5C(O)OC6COC(=O)c7cc(Oc8c(C(=O)OC9C(O)OC%10COC(=O)c%11cc(O)c(O)c(O)c%11-c%11c(cc(O)c(O)c%11O)C(=O)O[C@H]%10C9OC(=O)c9cc(O)c(O)c(O)c9)cc(O)c(O)c8O)c(O)c(O)c7-c7c(cc(O)c(O)c7O)C(=O)O[C@H]6C5OC(=O)c5cc(O)c(O)c(O)c5)cc(O)c(O)c4O)c(O)c(O)c3-c3c(cc(O)c(O)c3O)C(=O)O[C@H]2C1OC(=O)c1cc(O)c(O)c(O)c1)c1cc(O)c(O)c(O)c1 (stereo partly shown) [Compound represented by the formula (VI)] was tested, and the “Maillard reaction inhibition ratio (%)” value (Conc. 0.1 mg/mL) was 46.6%, the “Maillard reaction inhibition ratio (%)” value (Conc. 1 mg/mL) was 76.7% and the “Maillard reaction inhibition ratio (%)” value (Conc. 10 mg/mL) was 95.4%. The IC50 was 0.13 µg/mL, the “IC50 values compared with tannic acid” value was “particularly low” and the “Maillard reaction inhibitory activity compared with aminoguanidine (positive control)” value was “superior Maillard reaction inhibitory activity to aminoguanidine”.
In the case of O=c1oc2c(O)c(O)cc3c(=O)oc4c(O)c(O)cc1c4c23 [Ellagic acid dihydrate, ellagic acid dihydrate, reference compound], the “Maillard reaction inhibition ratio (%)” value (Conc. 0.01 mg/mL) is reported as 1.9%, the “Maillard reaction inhibition ratio (%)” value (Conc. 0.03 mg/mL) is reported as 2.2% and the “Maillard reaction inhibition ratio (%)” value (Conc. 0.1 mg/mL) is reported as 12.0%. For the same compound, the “Maillard reaction inhibition ratio (%)” value (Conc. 0.3 mg/mL) was 44.8%, the “Maillard reaction inhibition ratio (%)” value (Conc. 1 mg/mL) was 68.3% and the “Maillard reaction inhibition ratio (%)” value (Conc. 10 mg/mL) was 78.4%. It also gave an IC50 of 0.34 µg/mL.
With O=C(OC1C(O)OC2COC(=O)c3cc(Oc4c(C(=O)OC5C(O)OC6COC(=O)c7cc(O)c(O)c(O)c7-c7c(cc(O)c(O)c7O)C(=O)O[C@H]6C5OC(=O)c5cc(O)c(O)c(O)c5)cc(O)c(O)c4O)c(O)c(O)c3-c3c(cc(O)c(O)c3O)C(=O)O[C@H]2C1OC(=O)c1cc(O)c(O)c(O)c1)c1cc(O)c(O)c(O)c1 (stereo partly shown) [Eucarbanin B, eucarbanin B] the “Maillard reaction inhibition ratio (%)” value (Conc. 0.1 mg/mL) was 21.2%, the “Maillard reaction inhibition ratio (%)” value (Conc. 1 mg/mL) was 72.9% and the “Maillard reaction inhibition ratio (%)” value (Conc. 10 mg/mL) was 79.4%. For the same compound, the IC50 was 0.43 µg/mL (≈ 0.274 µM) and the “Maillard reaction inhibitory activity compared with aminoguanidine (positive control)” value was “superior Maillard reaction inhibitory activity to aminoguanidine”.
In the case of O=C1OC2C(O)OC3COC(=O)c4cc(O)c(O)c(O)c4-c4c(O)c(O)c5oc(=O)c6c(c(O)c(O)c7oc(=O)c4c5c76)-c4c(cc(O)c(O)c4O)C(=O)O[C@H]3C2OC(=O)c2cc(O)c(O)c(O)c2-c2c1cc(O)c(O)c2O (stereo partly shown) [Punicalagin, punicalagin], the “Maillard reaction inhibition ratio (%)” value (Conc. 0.01 mg/mL) is reported as 4.3%, the “Maillard reaction inhibition ratio (%)” value (Conc. 0.03 mg/mL) is reported as 10.9% and the “Maillard reaction inhibition ratio (%)” value (Conc. 0.1 mg/mL) is reported as 36.2%. For the same compound, the “Maillard reaction inhibition ratio (%)” value (Conc. 0.3 mg/mL) was 71.4%, the “Maillard reaction inhibition ratio (%)” value (Conc. 1 mg/mL) was 73.5% and the “Maillard reaction inhibition ratio (%)” value (Conc. 10 mg/mL) was 86.1%. The “IC50 values compared with tannic acid” value was “particularly low”, the “Maillard reaction inhibitory activity compared with aminoguanidine (positive control)” value was “superior Maillard reaction inhibitory activity to aminoguanidine” and the “Maillard reaction inhibition ratio (%) compared with ellagic acid dihydrate and aminoguanidine” value was “particularly superior”.
With O=C1OC[C@H]2OC(O)[C@H](O)[C@@H](O)[C@@H]2OC(=O)c2cc(O)c(O)c(O)c2-c2c(O)c(O)c3oc(=O)c4c(c(O)c(O)c5oc(=O)c2c3c54)-c2c1cc(O)c(O)c2O (stereo partly shown) [Punicalin, punicalin] the “Maillard reaction inhibition ratio (%)” value (Conc. 0.01 mg/mL) was 7.6%, the “Maillard reaction inhibition ratio (%)” value (Conc. 0.03 mg/mL) was 6.5% and the “Maillard reaction inhibition ratio (%)” value (Conc. 0.1 mg/mL) was 32.1%. The “Maillard reaction inhibition ratio (%)” value (Conc. 0.3 mg/mL) was 69.6%, the “Maillard reaction inhibition ratio (%)” value (Conc. 1 mg/mL) was 73.1% and the “Maillard reaction inhibition ratio (%)” value (Conc. 10 mg/mL) was 84.9%. For the same compound, the “IC50 values compared with tannic acid” value was “particularly low”, the “Maillard reaction inhibitory activity compared with aminoguanidine (positive control)” value was “superior Maillard reaction inhibitory activity to aminoguanidine” and the “Maillard reaction inhibition ratio (%) compared with ellagic acid dihydrate and aminoguanidine” value was “particularly superior”.
In the case of O=C(OC[C@H]1O[C@@H](OC(=O)c2cc(O)c(O)c(OC(=O)c3cc(O)c(O)c(O)c3)c2)[C@H](OC(=O)c2cc(O)c(O)c(OC(=O)c3cc(O)c(O)c(O)c3)c2)[C@@H](OC(=O)c2cc(O)c(O)c(OC(=O)c3cc(O)c(O)c(O)c3)c2)[C@@H]1OC(=O)c1cc(O)c(O)c(OC(=O)c2cc(O)c(O)c(O)c2)c1)c1cc(O)c(O)c(OC(=O)c2cc(O)c(O)c(O)c2)c1 [Tannic acid, reference compound], the “Maillard reaction inhibition ratio (%)” value (Conc. 0.01 mg/mL) is reported as 12.7%, the “Maillard reaction inhibition ratio (%)” value (Conc. 0.1 mg/mL) is reported as 48.7% and the “Maillard reaction inhibition ratio (%)” value (Conc. 1 mg/mL) is reported as 65.1%. The “Maillard reaction inhibition ratio (%)” value (Conc. 10 mg/mL) was 68.8% and the IC50 was 0.31 µg/mL (≈ 0.182 µM).
